In article PMC11681159, “Bee pollen peptides as potent tyrosinase inhibitors with anti-melanogenesis effects in murine b16f10 melanoma cells and zebrafish embryos” (Scientific Reports, 2024):
Entries after “also recorded” stand apart in the source; their conditions may differ. Ends that are not written are not given here.

Columns and labels:
Mitf = test: qRT-PCR, Mitf mRNA; type: cell-based, mouse; settings: B16F10, 48 h
Description: A 6-well plate was used to seed B16F10 cells at 1 × 10^5 cells per well prior to overnight incubation in a 5% CO2 humid atmosphere at 37°C. […] Harvesting was conducted via removal of the supernatant, and the cells were rinsed twice in PBS (phosphate-buffered saline). The PureLink™RNA Mini Kit (Invitrogen™, USA) was then used to extract total RNA in line with the guidance of the manufacturer. RNA concentration was assessed at 260 nm with a NanoDrop 2000 UV-Vis spectrophotometer (Thermo Fisher Scientific, Inc.). Oligo-dT primers and a Precision nanoScript II Reverse Transcription Kit (PrimerDesign, Camberley, UK) were used to perform the reverse transcription of 1 µg of total RNA to cDNA in line with the guidance of the manufacturer. MyGo Pro®Real time PCR apparatus (IT-IS International Ltd., Stokesley, UK) was then used to perform the qRT-PCR assays in which 20 µL of PCR reaction contained 1 µL of cDNA, 7 µL of ultrapure water, 1 µL of each primer […], and 10 µL of 2×qPCRBIO SyGreen Mix (PCR Biosystems Ltd, London, UK). This research made use of the following PCR primers: Gapdh forward 5’-[…]-3’, Gapdh reverse 5’-[…]-3’, Tyr forward 5’-[…]-3’, Tyr reverse 5’-[…]-3’, Trp-1 forward 5’-[…]-3’, Trp-1 reverse 5’-[…]-3’, Trp-2 forward 5’-[…]-3’, Trp-2 reverse 5’-[…]-3’, Mitf forward 5’-[…] − 3’, Mitf reverse 5’-[…]-3’. The initial stage of the process of qRT-PCR amplification was the activation step of thermal treatment where a temperature of 95 °C was used for 2 min, with 45 subsequent cycles comprising 10 s at 95 °C, 20 s at 60 °C, and 30 s at 72 °C, before embarking upon the final melting curve from 60 to 97 °C with 1 min for each step. The relative gene expression level could then be calculated via the cycle threshold (Ct) value, while the role of endogenous control for data normalization was occupied by Gapdh (the housekeeping gene). To calculate relative gene expression, the formula given below can be employed:2 [drawing 2]
where the heightened threshold cycle for the target gene is given as ΔΔCt.

mushroom TYR = biological target: T1, mushroom TYR (Agaricus bisporus, UniProt C7FF04); test: Kinetic study, Lineweaver-Burk, mono-phenolase; type: biochemical; settings: Km rose, Vmax unchanged
T1 construct: purchased Sigma-Aldrich, Merck T3824
Description: It is necessary to determine the type of TYR inhibitory activity which takes place. This can be achieved through a modified version of an assay described by Feng et al.[39]. The process starts by dissolving the peptide VY-9 in deionized water at various concentrations (0, 0.25, 0.5, and 1 mM). Each VY-9 peptide sample at each concentration (35 µL) was combined 15 µL of mushroom TYR (333 U/mL in 50 mM PBS pH 6.8) prior to 5 min of incubation at 25 °C. Subsequently, various concentrations of substrate were introduced, namely 0–2 mM L-tyrosine in the case of mono-phenolase, and 0–12 mM L-DOPA for di-phenolase. These new mixtures underwent further incubation for 30 min at the same temperature of 25 °C. Upon completion, a spectrophotometer was used to measure the absorbance and determine the inhibitory activity at 490 nm. Lineweaver-Burk plots were then used in calculating Km and Vmax, the kinetic parameters. Km is indicated by the intersection point on the X-axis while Vmax is indicated by the intersection point on the Y-axis in the mode of TYR inhibition under examination. Construction of the plots linked the substrate concentration reciprocal on the X-axis and the absorbance reciprocal (at 490 nm) on the Y-axis, to represent the starting rate for the enzymatic reaction. […]

Trp-1 = test: Western blot, TRP-1 protein; type: cell-based, mouse; settings: B16F10, 48 h
Description: Western blot analysis was performed to measure TYR (TYR, TRP-1, TRP-2, and MITF) in B16F10 cells in line with the approach discussed by Yoon et al.[65]. whereby the B16F10 cells underwent treatment for 48 h using various peptide amounts ([…]) and also with arbutin (0.2 mM). Following this process, the cells were lysed using NP40 Cell Lysis Buffer with protease inhibitor cocktail supplementation. Next, 12% sodium dodecyl sulfate poly-acrylamide (SDS-PAGE) gel electrophoresis was used to extract equal quantities of protein from each sample, with subsequent transfer to PVD (polyvinylidene fluoride) membranes (Millipore, Bedford, MA, USA). The membrane was blocked overnight with 3% skimmed milk (w/v) in TBST with 0.5% Tween 20 at 4 °C and then washed thrice in TBST. The rabbit polyclonal anti-TYR antibody (dilution 1:1000), anti-TRP-1 antibody (dilution 1:1000), anti-TRP-2 antibody and anti-MITF antibody (dilution 1:1000) obtained from Abcam (USA), were used respectively to detect the TYR, TRP-1, TRP-2, and MITF bands. After thrice washing again in TBST, secondary antibodies (dilution 1:5000) were added to the membranes for 1 h of incubation at room temperature before another triplicate washing in TBST. […] The software facilitated the identification and quantification of protein expression levels.

zebrafish embryos = test: Acute toxicity in zebrafish embryos; type: in vivo
Description: To perform the test of acute toxicity, a total of 20 fertilized zebrafish embryos were collected at around 4 h after fertilization and added to each well in a 12-well plate. […] Incubation of the plate then took place until 48 h after fertilization at a temperature of 28.5 ± 1 °C. The test solutions were refreshed at 24 h after fertilization to allow the counting and removal of any dead embryos. Following exposure, a stereomicroscope (SZX16, Olympus, Japan) was used to record the embryo morphological effects. Meanwhile, a slightly modified version of a previously described melanin inhibitory assay was carried out[30]. The embryos were then homogenized using a cold lysis buffer (PBS pH 7.4, 1% Triton-X and 1% DMSF). The lysate then underwent 10 min of sonication before being placed in a centrifuge for 5 min at 10,000×g. The pellet was then removed from the centrifuge and dissolved in 200 µL of 1 N NaOH for 1 h at a temperature of 85 °C. This sample was subsequently vortexed and placed in the centrifuge for a further 5 min at 10,000×g. A microplate reader (Spectramax M5, Molecular Devices, USA) was then employed to determine the supernatant absorbance at 490 nm. Melanin content levels could then by calibrated by using the protein amount, and were reported in the form of a percentage compared to the untreated control. In the melanin inhibitory assay, the positive control used was phenylthiourea (PTU) solution (0.0015%).

T1 sequence (C7FF04 2-392): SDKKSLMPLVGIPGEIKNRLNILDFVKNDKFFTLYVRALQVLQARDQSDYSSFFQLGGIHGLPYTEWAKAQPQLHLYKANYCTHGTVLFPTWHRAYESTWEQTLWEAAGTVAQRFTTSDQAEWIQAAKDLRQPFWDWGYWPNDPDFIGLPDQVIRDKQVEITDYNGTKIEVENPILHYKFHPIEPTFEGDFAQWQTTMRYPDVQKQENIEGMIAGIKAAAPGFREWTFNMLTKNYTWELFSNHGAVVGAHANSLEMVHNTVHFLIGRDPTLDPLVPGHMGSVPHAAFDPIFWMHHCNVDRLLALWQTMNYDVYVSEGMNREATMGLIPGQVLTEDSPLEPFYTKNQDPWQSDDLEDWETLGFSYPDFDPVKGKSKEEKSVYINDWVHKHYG

VDGYPAAGY [VY-9, Val-Asp-Gly-Tyr-Pro-Ala- Ala-Gly-Tyr]
Mitf mRNA expression vs control (Mitf; 1.6 µM): significantly reduced the expression levels of all measured genes
concentration from which Mitf mRNA expression decreased (Mitf; vs control): 0.2 µM
Mitf mRNA expression vs arbutin (Mitf; VY-9 1.6 µM vs arbutin 0.2 mM): significantly decreased compared to arbutin
inhibition type, mono-phenolase (mushroom TYR): competitive inhibitor
TRP-1 protein expression vs control (Trp-1; 1.6 µM): the expression of all proteins decreased compared to the control
concentration from which TRP-1 protein expression gradually decreased (Trp-1; western blot): 0.2 µM
embryo development (zebrafish embryos; 20 µM): the development of the embryo was significantly retarded
embryo survival / malformation (zebrafish embryos; 2–10 µM, vs control): no significant influence; also recorded: no significant difference in the rates for survival or malformation
no observed effect concentration (NOEC) (zebrafish embryos; zebrafish embryos, to 48 h after fertilization, 28.5 °C): 10 µM
